From patent US5795885A, “Method of inhibiting profileration of cells by administering an aminosterol compound” (priority 1995, dated 1998)

Columns and labels:
[1] = test system: human microvascular cells; assay: endothelial cell cord formation in vitro; assay type: cell-based
Description: Endothelial cells have the capacity in vitro to form tubular aggregates resembling capillaries in various early stages of formation. This conversion occurs under relatively specific conditions, in which essential growth factors along with an effective substratum are provided. It has been shown that both the interaction of growth factors with the endothelial cell and its attachment to a substratum activate the NHE. The activation of this exchanger is believed to be required for subsequent morphologic transformation of the endothelial cell into a multicellular tubular structure.
To assess the effect of compounds on the cord-like structures formed by human microvascular cells when plated in the presence of VEGF (Vascular Endothelial Growth Factor) and basic fibroblast growth factor on a collagen matrix, a standard cord formation assay was used.

[2] = test system: human umbilical venous endothelial cells; assay: LPS/TNF-α-induced neutrophil adherence to human umbilical venous endothelial cells; conditions: 10, 1.0 or 0.1 μg; three different subjects
Method: In these experiments, approximately 2×10^5 human umbilical venous cells (passage 2-6) were plated per well. The cells were grown in serum-free media overnight. For induction, either TNF-α (40 ng/ml) was added to endothelial cells for 6 hours prior to adding neutrophils or LPS (100 ng/ml) was added for 4-6 hours. […] After activation of the endothelial cells, approximately 50×10^6 neutrophils were added per well. The plates were gently rocked for 30 minutes at room temperature, followed by removal of the media and washing in serum-free media three times and then photographing of each well. […] A monoclonal Ab to ICAM-1 was a positive control.

rabbit NHE1 = assay: internal pH recovery, PS120 fibroblasts transfected with rabbit NHE1 (BCECF-AM); assay type: cell-based; conditions: 5 μg/ml; acid-preloaded by 40 mM NH4Cl
Method: PS120 fibroblasts transfected with rabbit or human NHE1 were grown as described above.

CC(C)[C@@H](CC[C@@H](C)[C@H]1CC[C@H]2[C@@H]3[C@H](O)C[C@H]4C[C@@H](NCCCNCCCCN)CC[C@]4(C)[C@H]3CC[C@]12C)OS(=O)(=O)O [Squalamine, squalamine]
effect on endothelial cord formation ([1]; 0.01 μg/ml): -
effect on endothelial cord formation ([1]; 0.1 μg/ml): +
effect on endothelial cord formation ([1]; 1.0 μg/ml): +
effect on endothelial cord formation ([1]; 10.0 μg/ml): +
cell viability or proliferation ([1]; at these concentrations): does not appear to profoundly affect cell viability or proliferation
inhibition of neutrophil adherence [2]: no inhibition
inhibition of rabbit NHE1 (rabbit NHE1): no inhibitory activity
